Data from patent US20130052137A1, “PARA AMINO BENZOIC ACID BASED NANOTUBES” (priority 2009, published 2013).

SMILES | melting point [°C]
CCCCCCCCCCCCCCCCCC(=O)Nc1ccc(C(=O)Nc2ccccn2)cc1 [Compound 1b, N-(Pyridin-2-yl)-4-stearamidobenzamide] | 140 to 142
CCCCCCCCCCCC(=O)Nc1ccc(C(=O)Nc2ccccn2)cc1 [Compound 1a, N-(Pyridine-2-yl)-4-dodecanamido-benzamide] | 152 to 154
